Experimental data: patent publication US5710164A, “Diheterocyclic styryl nitriles” (American Home Products Corporation, priority 1995, dated 1998)
pIC50: −log10 of the molar value. Where two headings read alike, the source gives them in different places.

How the values were obtained:
[1] = test system: porcine aortic smooth muscle cells; assay: inhibition of smooth muscle cell proliferation (3H thymidine, serum or PDGF stimulated); assay type: cell-based; details: Sus scrofa, 24-36 h at 37° C.
Protocol: The ability of the compounds of the present invention to inhibit smooth muscle cell proliferation was established using isolated porcine aortic smooth muscle cells in a modification of the procedure of Castellot et al. J. Biol. Chem 257(19) 11256 (1982), as follows:
Fresh porcine aortas, scrupulously cleansed of fatty tissue, are rinsed in sterile phosphate-buffered saline with 2% antibiotic-antimycotic (100×) liquid (10,000 units of penicillin (base), 10,000 μg of streptomycin (base), and 25 μg of amphotericin B/mL utilizing penicillin G (sodium salt), streptomycin sulfate, and amphotericin B as Fungizone® in 0.85% saline, available from Gibco Laboratories, Grand Island Biological Co., Grand Island, N.Y.). The tissue is then digested in 10-15 mL of an enzyme solution containing collagenase type I, 165 U/mL; elastase type III, 15 U/mL; BSA, 2 mg/mL; and soybean trypsin inhibitor, 0.375 mg/mL, followed by incubation at 37° C. under 5% CO2 atmosphere for 10 to 15 minutes. After this treatment, the outer surface adventitia is removed by peeling with a forceps. The aorta is then longitudinally cut and laid open and the endothelial layer is removed by scraping.
The medial layer of cells is rinsed in the enzyme solution, and placed in a new 100 mm dish with 10 mL of enzyme solution. The medial layer of cells is minced using a fine pair of scissors and digested for 2-3 hours at 37° C. in 30 mL of fresh enzyme solution. After digestion, the medial tissue is homogenized using a sterile Pasteur pipette with a fire polished tip or an Eppendorf pipetter with a 200-1000 μL sterile pipette tip. The suspension is then centrifuged for 10 minutes at 8000 rpm and the pellet is suspended in 4-6 mL of fresh enzyme solution and plated onto 4-6 100 mm flasks with vented caps. The cells are then allowed to grow to confluence and split using 0.25% trypsin. The cells are evaluated for purity and overall quality using antibody to SMC actin.
The cells are assayed in early passage (generally passage 3-7) at sub-confluent conditions. Cultures are grown in 16 mm (24 well) multi-well culture dishes in media 199 supplemented with 10% fetal bovine serum and 2% antibiotic/antimycotic. At subconfluence, the cells are placed in a defined serum free, lymphocyte medium (AIM-V; Gibco) for 24-48 hours prior to initiating the experimental protocol.
The standard test procedure is initiated by addition of the test compound, ^3 H thymidine and serum or a specific growth factor to the serum deprived synchronized cells. Growth factor and serum stimulations are optimized for each cell type. The test compounds are added to each well at 50 fold dilution (20 μL/well) and the plates are incubated for 24-36 hours at 37° C. in 5% CO2 atmosphere. Test compounds are dissolved in 50% ethanol and assayed at 1, 10, and 100 μM. As a control, RG 50872 (Bilder, G. A.; et al., Am. J. Cell Physiol., 1991; 260: C721) is routinely assayed under the conditions of each cell preparation at a concentration of 5 μM.
At the completion of the experiment, the plates are placed on ice, washed three times with ice cold PBS and incubated in ice cold 10% trichloroacetic acid (TCA) for 30 minutes to remove acid soluble proteins. Each solution is transferred to a scintillation vial containing 0.4N HCl (500 μL/vial to neutralize NaOH) and each well is rinsed two times with water (500 μL) for a total volume of 2 mL/vial.
Data is quantitated by subjecting the vials to a scintillation counter, in triplicate, for both control and experimental samples. Control (100%) data is obtained from maximally stimulated cells, as the result of growth factor or serum stimulation. Experimental data is obtained from cells maximally stimulated with growth factor or serum and treated with a test compound. (The platelet-derived growth factor used in the assay was human recombinant PDGF-AB purchased from Upstate Biotechnology Inc., Lake Placid, N.Y.). Data is expressed as a percent of control from which IC50 s are determined.

[2] = cytotoxicity, modified MTT assay (% viable cells); assay type: cell-based, porcine; details: pig, smooth muscle cells; fresh medium without serum, 24 h at 37° C.; no drug = 100% viable
Protocol: To distinguish cytotoxicity from the ability of a compound to prevent proliferation, the test compounds were examined using a commercial modification of the MTT assay. Briefly, cells were grown in 24 well plates to 70-80% confluency. The cells were serum deprived for 24-48 hours prior to initiation of the experimental protocol. To insure that the MTT assay monitored toxicity rather than proliferation, the cells were incubated with […] test compound in fresh medium without serum for 24 hours at 37° C. in a humidified CO2 incubator. Upon completion of the compound treatment, MTT indicator dye was added for 4 hours at 37° C. Cells were then solubilized and aliquots from each well were transferred to a 96-well plate for analysis. Absorbance at 570 nm wavelength with a reference wavelength of 630 nm was recorded using an ELISA plate reader. Results are reported as percent viable using no drug (100% viable) and pre-solubilization (0% viable) standards.

[3] = human recombinant PDGF-AB stimulated, read-out: Porcine Smooth Muscle Cell Antiproliferation IC50 or % Inhibition at x Concentration, PDGF
[4] = serum-stimulated, read-out: Porcine Smooth Muscle Cell Antiproliferation IC50 or % Inhibition at x Concentration, Serum

Compound | pIC50 [1, 3] | pIC50 [1, 4] | viability at 24 h [2] [%]
CCn1c2ccccc2c2cc(/C=C(\C#N)c3cccnc3)ccc21 [Example 8, (Z)-3-(9-Ethyl-9H-carbazol-3-yl)-2-(pyridin-3-yl) acrylonitrile] | 6.47 | 6.45 | 100
N#C/C(=C\c1ccc2c(c1)OCCO2)c1c[nH]c2ncccc12 [Example 7, (Z)-3-(2,3-Dihydro-benzo[1,4]dioxin-6-yl)-2-(1H-pyrrolo-[2,3-b]pyridin-3-yl)-acrylonitrile] | 4.83 | 5.91 | 100
N#CC(=Cc1cccnc1)c1cccnc1 [Example 5, 2,3-Di-pyridin-3-yl-acrylonitrile] | – | 4.02 | –
N#CC(=Cc1ccccn1)c1cccnc1 [Example 4, 2-Pyridin-3-yl-3-pyridin-2-yl-acrylonitrile] | – | 4.32 | 92
N#CC(=Cc1ccc2c(c1)OCCO2)c1cccnc1 [Example 3, 3-(2,3-Dihydro-benzo[1,4]dioxin-6-yl)-2-pyridin-3-yl-acrylonitrile] | 4.98 | 4.94 to 5.42 | 86
N#CC(=Cc1ccnc2ccccc12)c1cccnc1 [Example 2, 2-Pyridin-3-yl-3-quinolin-4-yl-acrylonitrile] | – | 4.09 | –
N#C/C(=C\c1ccncc1)c1cccnc1 [Example 1, Z-2-(Pyridin-3yl)-3-(pyridin-4-yl)-acrylonitrile] | 6.46 | 5.94 | 100
N#CC(=Cc1ccc[nH]1)c1cccnc1 [Example 9, 2-(Pyridin-3-yl)-3-(1H-pyrrol-2-yl)-acrylonitrile] | – | 4.04 | 84
N#CC(=Cc1c[nH]c2ncccc12)c1cccnc1 [Example 6, 2-(Pyridin-3-yl)-3-(1H-pyrrolo[2,3-b]pyridin-3-yl)-acrylonitrile] | 6.05 | 5.93 | 100
